# Laboratory results reported in US7919077B2, “Pharmaceutical compositions comprising CCL2 and use of same for the treatment of inflammation” (Yeda Research and Development Co. Ltd., priority 2006, dated 2011).
# How the values were obtained:
# naive lymphocytes = assay: Intravital microscopy of mouse subiliac LN: lymphocyte rolling and sticking in HEVs; assay type: in vivo, C57BL/6 mice
# Method: Intravital microscopy of mouse subiliac LN—Mice were anesthetized by intraperitoneal injection of 1 mg/ml xylazine and 5 mg/ml ketamine. The right femoral artery was catheterized. The left subiliac LN was prepared for IVM as previously described [Carriere et al., Cancer Res. (2005) 65:11639-11648; M'Rini et al., J Exp Med. (2003) 198:1301-1312], and the mouse was then transferred to a customized intravital video microscopy setup (INM 100; Leica Microsystems SA, Rueil-Malmaison, France) equipped with water immersion objectives (HCX APO; Leica Microsystems SA, Rueil-Malmaison, France). Fluorescent events in the LN microcirculation were visualized and recorded by a silicon-intensified target camera (Hamamatsu Photonics, Massy, France) and stored on DVCAM video tapes (DSR-11 Sony, IEC-ASV, Toulouse, France).
# For visualization of naive lymphocyte interactions with LN vascular endothelium, naïve lymphocytes obtained from single T and B cell suspensions of a control C57BL/6 pool of subiliac, axillary, brachial and mesenteric LNs were incubated in the presence or absence of CCL2 (R&D Systems, Lille, France; 1 ng/ml, 30 minutes, 37° C.), fluorescently labeled by calcein AM (Molecular Probes-Invitrogen, Cergy Pontoise, France; 0.25 microM, 5 min, 37° C.) and then injected into the right femoral artery. Cell behavior in LN venules was assessed as previously described [Carriere et al., supra; M'Rini et al., supra]. The rolling fraction was determined as the percentage of cells that rolled along the vascular lining in the total flux of cells per venule. The sticking fraction was determined as the percentage in rolling cells of cells firmly adherent for at least 10 seconds or 1 minute.
# naïve T cells = assay: Cytoskeleton rearrangement (actin polymerization), naïve T cells; assay type: cell-based, mice; settings: naïve T cells pre-treated with CCL2 0.1 ng/ml, 15 seconds stimulation
# Method: Cytoskeleton rearrangement—T cells were pre-incubated for 30 minutes in the presence or absence of CCL2 (0.1 ng/ml), and then stimulated with either CXCL12 (0.1 mg/ml PeproTech, Inc., Rocky Hill N.J.), SLC (CCL21, 0.4 mg/ml, PeproTech, Inc., Rocky Hill, N.J.), Rantes (0.1 mg/ml, R&D systems Minneapolis, Minn.), MIP-1β(0.1 mg/ml, R&D systems Minneapolis, Minn.) or Eotoxin (0.1 mg/ml R&D systems Minneapolis, Minn.) for 15 seconds. Cells were then immediately fixed with paraformaldehyde, permeabilized and their intracellular F-actin was stained with FITC-phalloidin (Sigma-Aldrich, St. Louis, Mo.), and then analyzed by flow cytometry to determine the state of their cytoskeleton, as previously described [Flaishon, L. F., et al., J. Biol. Chem. 276:46701 (2001)].
# TNBS colitis mouse model = assay type: in vivo, mice; settings: for Diarrhea (# of mice): 8 mice; for Colitis score: Wallace score 0 to 16
# Method: TNBS colitis model and treatment with CCL2—TNBS colitis was induced as previously described [Ohkawara et al. (2002) Gastroenterology, 123:256]. Briefly, mice were anesthetized by i.p. injection (35 μl per mouse) of a mixture containing 85% ketamine and 15% xylazine (20 mg/ml). Next, 100 μl of TNBS [55% volume of 50% ethanol mixed with 45% volume of TNBS solution ([…]; Sigma-Aldrich)] was infused into the colonic lumen (about 3.5 cm of the anal verge) via 1 ml syringe attached to a feeding needle. Treated mice were weighted daily and visually inspected for clinical symptoms, such as rectal bleeding and diarrhea.
# TNBS mice were divided into 6 groups. CCL2 groups (10 mice in each group) were injected i.p. daily with different CCL2 concentrations (30 ng, 60 ng or 180 ng) in 200 μl of PBS from day 0 (immediately after TNBS induction) to day 6. Control groups (10 mice in each group) were injected i.p. daily with 200 μl PBS alone. Additionally, 5 mice were injected i.p. daily with dexamethasone; and 1 mouse which was not treated and served as negative control for future histology and weight.
# Macroscopic and histological assessment of colitis—An observer blind to the experimental procedure scored colitis for clinical manifestation of disease. The colon was macroscopically examined (×5 magnification) to evaluate the macroscopic lesions according to the Wallace criteria. The Wallace score ranks macroscopic colon lesions on a scale from 0 to 16 based on criteria reflecting inflammation, such as hyperemia, thickening of the bowel and the extent of ulceration. The colon was cut lengthwise and fixed in 4% paraformaldehyde for future histology.
# ERK½ = assay: ERK detection (phospho-ERK western blot) in naïve T cells; assay type: cell-based, mice; settings: naïve T cells pre-treated with CCL2 30 minutes, CCL21 for 30 or 60 seconds; FIG. 3
# Method: Stimulation of T cells—Cell stimulation was performed as previously described [Flaishon et al., J Biol Chem. (2001) 276:46701-46706]. Briefly, 1×10^7 T cells were suspended in 1 ml DMEM cell medium containing 10% (v/v) Fetal Calf Serum (FCS). Next, 0.1 ng/ml CCL2 (CytoLab) was added to each tube and the tubes were immediately placed in 37° C. for 30 minutes. Immediately after stimulation, cells were washed and handled as described hereinbelow.
# Preparation of cell extract—Stimulated cells were lysed in lysis buffer containing: 25 mM Tris, pH 7.4; 2 mM Vanadate; 75 mM glycophosphate, pH 7.2; 2 mM EDTA; 2 mM EGTA; 10 mM NaPPi; and 0.5% NP-40, in the presence of the following protease inhibitors: 10 mg/ml Leupeptin; 10 mg/ml aprotinin; 10 mg/ml pepstatin; 10 mg/ml chymostatin (Roche); 1 mM PMSF (Sigma); and 20 mM N-etheyl-melamide (Sigma).
# ERK detection—Cell lysates were separated on a 10% (wt/vol) SDS-PAGE. Proteins were electro-transferred to nitrocellulose membranes and reacted with anti-phospho-specific extracellular signal-regulated kinase (ERK) 1 or 2 (a kind gift from Dr Rony Seger, Weizmann Institute, Rehovot, Israel) followed by peroxidase-labeled goat anti-mouse (Jackson Labs), or reacted with polyclonal anti-Tubulin (Santa Cruz) followed by peroxidase anti-rabbit (Jackson Labs).
# effector T cells = assay: Transwell migration of effector T cells (data not shown); assay type: cell-based, mice; settings: low dose CCL2
# [1] = CCL2 30 ng i.p. daily day 0 to day 6
# [2] = CCL2 60 ng i.p. daily day 0 to day 6
# [3] = CCL2 180 ng i.p. daily day 0 to day 6
substance,measurement,setting,value
"CCL2: mammalian (e.g., human) CCL2 protein, GenBank NM_002982 / NP_002973; murine CCL2 used in the asthma model",number of firmly bound lymphocytes in the PLN venular tree,"naive lymphocytes; 30 minutes after injection of the fluorescent cells, FIGS. 5f-g",striking reduction
same,L-selectin mediated rolling in HEVs (rolling fraction),"naive lymphocytes; lymphocytes pre-treated with CCL2 1 ng/ml 30 minutes, FIG. 5b",did not significantly alter
same,sticking fraction 10 seconds,"naive lymphocytes; lymphocytes pre-treated with CCL2 1 ng/ml 30 minutes, vs control, FIG. 5c",comparable
same,percentage of cells which remained adherent 1 minute after initial arrest,"naive lymphocytes; lymphocytes pre-treated with CCL2 1 ng/ml 30 minutes, vs control, FIG. 5e",severe reduction
same,percentage of cells which remained adherent 30 seconds after initial arrest,"naive lymphocytes; lymphocytes pre-treated with CCL2 1 ng/ml 30 minutes, vs control, FIG. 5d",severe reduction
same,inhibition of CXCL12-induced actin polymerization,naïve T cells; FIG. 2c,40-50%
same,inhibition of CCL21-induced actin polymerization,naïve T cells; FIG. 2d,40-50%
same,Colon length (cm),TNBS colitis mouse model; [1],6.25 ± 0.65 cm
same,Diarrhea (# of mice),TNBS colitis mouse model; [1],4 # of mice
same,Colitis score,TNBS colitis mouse model; [1],10.875 ± 4.29
same,Colon length (cm),TNBS colitis mouse model; [2],7.88 ± 0.35 cm
same,Diarrhea (# of mice),TNBS colitis mouse model; [2],0 # of mice
same,Colitis score,TNBS colitis mouse model; [2],2.13 ± 1.89
same,Colon length (cm),TNBS colitis mouse model; [3],7.88 ± 0.58 cm
same,Diarrhea (# of mice),TNBS colitis mouse model; [3],0 # of mice
same,Colitis score,TNBS colitis mouse model; [3],2.88 ± 1.89
same,"TNBS colitis disease severity (diarrhea, colon shortening)","TNBS colitis mouse model; mice, CCL2 i.p. daily day 0 to day 6, Table 2, FIG. 10",significantly inhibited the disease
same,CCL21-induced phosphorylation of ERK½,ERK½,inhibited
same,CCL21 induced transwell migration of effector cells,effector T cells,down-regulated
same,CXCL12 induced transwell migration of effector cells,effector T cells,down-regulated
